The text below walks through data of the OPERA property sets (Mansouri et al. 2018).

With `CN(Cc1ccccc1)N=O`, the logP (commonly a log measure of how a compound divides between an organic and an aqueous phase) worked out at 1.55.

Turning to `CN(Cc1cccc(Cl)c1)N=O`, the logP was determined as 1.46.

Compound `CN(Cc1ccc([N+](=O)[O-])cc1)N=O` had a logP of 0.82.

As for `CN(Cc1cccc(C(F)(F)F)c1)N=O`, the logP was 1.99.

For `COc1cccc(CN(C)N=O)c1`, the logP was 1.6.

Turning to `CN(Cc1ccc(Cl)cc1)N=O`, the logP was determined as 2.19.

`Cc1ccc(CN(C)N=O)cc1` had a logP of 2.14.

`CN(Cc1cccc([N+](=O)[O-])c1)N=O`: the logP was 1.17.

For `Cc1cccc(CN(C)N=O)c1`, the logP amounted to 1.96.

Take `CN(Cc1ccc(F)cc1)N=O`: the lipophilicity (logP) was 1.67.
